Laboratory results: patent US7893066B2, “Pyridol[2,3-B]pyrazinones for use as stearoyl CoA desaturase inhibitors” (Gilead Palo Alto, Inc., priority 2006, dated 2011)

molecular target: T1, stearoyl-CoA desaturase (SCD) (Rattus norvegicus, UniProt P07308); experiment: SCD assay, rat liver microsomes with [3H]stearoyl CoA (adapted from Talamo and Bloch); type: biochemical; settings: second table, same SCD assay
T1 construct: from tissue; host or cells: liver microsomes of male Sprague Dawley rats, with SCD induced by a carbohydrate-rich diet
T1 sequence (P07308 1-358): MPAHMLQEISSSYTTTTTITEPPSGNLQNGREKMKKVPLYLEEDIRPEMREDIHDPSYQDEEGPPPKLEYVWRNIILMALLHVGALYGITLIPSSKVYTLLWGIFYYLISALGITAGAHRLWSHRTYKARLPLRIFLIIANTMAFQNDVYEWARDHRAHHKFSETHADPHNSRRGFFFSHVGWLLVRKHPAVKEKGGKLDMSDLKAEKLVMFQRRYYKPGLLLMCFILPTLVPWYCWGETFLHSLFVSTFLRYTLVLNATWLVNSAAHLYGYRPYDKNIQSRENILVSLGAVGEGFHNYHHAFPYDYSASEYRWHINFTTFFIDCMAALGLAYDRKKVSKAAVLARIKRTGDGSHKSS
From the text: The identification of compounds of the invention as SCD inhibitors was readily accomplished using the SCD enzyme and microsomal assay procedure described in Talamo and Bloch (1969) Analytical Biochemistry 29:300-304.
The rat liver microsomes were collected according to the procedure described in Ozols (1990) Methods Enzm, 182:225.
Male Spraque Dawley Rats were placed on regimented fasting protocol for one week to stimulate SCD enzymatic activity. 48-hour periods were alternated between feeding and fasting to induce and down-regulate SCD activity with SCD activity being induced via carbohydrate rich diet prior to liver perfusion and collection.
The rats were anesthetized with Isoflurane inhalation anesthetic, the liver perfused with cold phosphate buffered saline (PBS), weighed, and chilled in cold homogenization buffer (250 mM sucrose, 10 mM Tris, 1 mM EDTA, pH 7.6.
The livers were finely minced and placed in homogenization tube. 40 mL of homogenization buffer was added to the homogenization tube and the liver homogenized and centrifuged in a pre-chilled SLA-600 TC at 800G rotor for 10 min at 4° C.
Following centrifugation, the supernatant was collected and the pellet removed and discarded. This supernatant was then centrifuged at 10,000G for 35 minutes. Following centrifugation, the supernatant was collected and the pellet discarded. The supernatant was further centrifuged in a pre-chilled 45-Ti rotor at 130,000 G (41,000 RPM) for 90 minutes at 4° C.
The supernatant was then aspirated off and the collected microsomal pellet washed in 25 mL of Glycerol PBS (1×PBS 7.4, 20% Glycerol) and resuspended in 4-5 volumes of Glycerol PBS.
The protein concentration of the microsomal preparation was determined by BCA assay (Pierce) and the microsomes were aliquoted and stored at −80° C.
Biobeads were ground to a smaller size in a mortar and pestle and filtered through 300 μM mesh and then resuspended in 3.6% TCA.
SCD was determined in the desaturase assay buffer. This assay buffer contained 0.1 M Tris buffer, pH 7.2, 2 mM NADH, 4.8 mM ATP, 0.5 mM CoA, 4.8 mM MgCl2, and 0.1% BSA.
1 μl of each compound of Formula I was added to an assay plate by a low volume (0.5-10 μL) multichannel pipette. A DMSO control was also prepared. The microsomes were quickly thawed and added to assay buffer so that a concentration of 1-0.1 mg/ml was achieved (0.5-0.05 mg/ml assay final). 50 μl of the microsome suspension in assay buffer was then added into each well in the compound assay plate, the plate was covered, and the microsomes preincubated with the compounds for 30-60 minutes on the orbital shaker, 50-75 rpm, at room temperature.
After preincubation, the reaction was initiated by the addition of 50 μl of substrate solution (20 μM Stearoyl CoA, [3H]Stearoyl CoA, 74nCi) to the preincubated microsomes/compound suspensions in MilliQ (Millipore) H2O. The reaction mixtures were then incubated for 45 minutes on the orbital shaker at 50-75 rpm at room temperature.
The reaction was terminated by the addition of 10 μl of 21% trichloroacetic acid (TCA) to the reaction mixture followed incubation on the orbital shaker for 30 minutes at 50-75 rpm at room temperature followed by centrifugation for 5 minutes at 3700 rpm.
50 μl of a 6% Bio-Bead suspension in H2O was added to the reaction mixture and the assay plate was sealed. The Bio-Bead mixture was incubated on the orbital shaker for 1 to 24 hours, 100-150 rpm at room temperature, and then the mixture was centrifuged at 2000g for 5 minutes to pellet the Bio-Beads.
25 μl of the supernatant was harvested from each well and transferred to a detection plate. 100 μl of OptiPhase SuperMix scinitillation cocktail (containing sufficient NaOH to neutralize the TCA) was added and the solutions mixed by vigorous shaking (300-400 rpm) for 5 minutes at room temperature.

IC50 [nM]	Structure (SMILES)
150	COc1ccc(-c2nc3ccc(NCc4ccc(Cl)c(Cl)c4)nc3n(CCCC(N)=O)c2=O)cc1 [compound 11, 4-(6-(3,4-dichlorobenzylamino)-2-(4-methoxyphenyl)-3-oxopyrido[2,3-b]pyrazin-4(3H)-yl)butanamide]
510	CC(=O)NCCn1c(=O)cnc2ccc(NCc3ccc(Cl)c(Cl)c3)nc21 [compound 14, N-(2-(6-(3,4-dichlorobenzylamino)-3-oxopyrido[2,3-b]pyrazin-4(3H)-yl)ethyl)acetamide]
19000	COC(=O)c1cccc(CNc2ccc3nc(-c4ccc(OC)cc4)c(=O)n(CCNC(C)=O)c3n2)c1 [compound 15, methyl 3-((4-(2-acetamidoethyl)-2-(4-methoxyphenyl)-3-oxo-3,4-dihydropyrido[2,3-b]pyrazin-6-ylamino)methyl)benzoate]
930	CONC(=O)CCn1c(=O)c(-c2ccc(OC)cc2)nc2ccc(NCc3cccc(C(F)(F)F)c3)nc21 [compound 16, N-methoxy-3-(2-(4-methoxyphenyl)-3-oxo-6-(3-(trifluoromethyl)benzylamino)pyrido[2,3-b]pyrazin-4(3H)-yl)propanamide]
6700	CCOC(=O)c1nc2ccc(NCc3cccc(C(F)(F)F)c3)nc2n(CCNC(C)=O)c1=O [compound 17, ethyl 4-(2-acetamidoethyl)-3-oxo-6-(3-(trifluoromethyl)benzylamino)-3,4-dihydropyrido[2,3-b]pyrazine-2-carboxylate]
380	COc1ccc(-c2nc3ccc(NCc4cccc(C)c4)nc3n(CCNC(C)=O)c2=O)cc1 [compound 18, N-(2-(2-(4-methoxyphenyl)-6-(3-methylbenzylamino)-3-oxopyrido[2,3-b]pyrazin-4(3H)-yl)ethyl)acetamide]
360	CNC(=O)CCn1c(=O)c(-c2ccc(OC)cc2)nc2ccc(NCc3cccc(C(F)(F)F)c3)nc21 [compound 19, 3-(2-(4-methoxyphenyl)-3-oxo-6-(3-(trifluoromethyl)benzylamino)pyrido[2,3-b]pyrazin-4(3H)-yl)-N-methylpropanamide]
260	COc1ccc(-c2nc3ccc(NCc4cccc(OC(F)(F)F)c4)nc3n(CCNC(C)=O)c2=O)cc1 [compound 20]
1500	COc1ccc(-c2nc3ccc(NCc4cc(C(F)(F)F)ccc4F)nc3n(CCNC(C)=O)c2=O)cc1 [compound 21, N-(2-(6-(2-fluoro-5-(trifluoromethyl)benzylamino)-2-(4-methoxyphenyl)-3-oxopyrido[2,3-b]pyrazin-4(3H)-yl)ethyl)acetamide]
230	COCCOc1ccc(-c2nc3ccc(NCc4cccc(C(F)(F)F)c4)nc3n(CCNC(C)=O)c2=O)cc1 [compound 23, N-(2-(2-(4-(2-methoxyethoxy)phenyl)-3-oxo-6-(3-(trifluoromethyl)benzylamino)pyrido[2,3-b]pyrazin-4(3H)-yl)ethyl)acetamide]
100	CCCc1ccc(-c2nc3ccc(NCc4cccc(C(F)(F)F)c4)nc3n(CCNC(C)=O)c2=O)cc1 [compound 24, N-(2-(3-oxo-2-(4-propylphenyl)-6-(3-(trifluoromethyl)benzylamino)pyrido[2,3-b]pyrazin-4(3H)-yl)ethyl)acetamide]
4300	CC(=O)NCCn1c(=O)c(-c2ccc(NC(C)=O)cc2)nc2ccc(NCc3cccc(C(F)(F)F)c3)nc21 [compound 25, N-(4-(4-(2-acetamidoethyl)-3-oxo-6-(3-(trifluoromethyl)benzylamino)-3,4-dihydropyrido[2,3-b]pyrazin-2-yl)phenyl)acetamide]
110	CC(=O)NCCn1c(=O)c(-c2ccc(C)cc2)nc2ccc(NCc3cccc(C(F)(F)F)c3)nc21 [compound 26, N-(2-(3-oxo-2-p-tolyl-6-(3-(trifluoromethyl)benzylamino)pyrido[2,3-b]pyrazin-4(3H)-yl)ethyl)acetamide]
93	CCc1ccc(-c2nc3ccc(NCc4cccc(C(F)(F)F)c4)nc3n(CCNC(C)=O)c2=O)cc1 [compound 27, N-(2-(2-(4-ethylphenyl)-3-oxo-6-(3-(trifluoromethyl)benzylamino)pyrido[2,3-b]pyrazin-4(3H)-yl)ethyl)acetamide]
390	CC(=O)NCCn1c(=O)c(-c2ccc(F)cc2)nc2ccc(NCc3cccc(C(F)(F)F)c3)nc21 [compound 28, N-(2-(2-(4-fluorophenyl)-3-oxo-6-(3-(trifluoromethyl)benzylamino)pyrido[2,3-b]pyrazin-4(3H)-yl)ethyl)acetamide]
12000	COc1ccc(-c2nc3ccc(NCc4ccc(Cl)c(Cl)c4)nc3n(CCNC(=O)CN(C)C)c2=O)cc1 [compound 32, N-(2-(6-(3,4-dichlorobenzylamino)-2-(4-methoxyphenyl)-3-oxopyrido[2,3-b]pyrazin-4(3H)-yl)ethyl)-2-(dimethylamino)acetamide]
120	COc1ccc(-c2nc3ccc(NCc4ccc(Cl)c(Cl)c4)nc3n(CCNC(=O)COC(C)=O)c2=O)cc1 [compound 33, 2-(2-(6-(3,4-dichlorobenzylamino)-2-(4-methoxyphenyl)-3-oxopyrido[2,3-b]pyrazin-4(3H)-yl)ethylamino)-2-oxoethyl acetate]
1600	Cc1nc2ccc(NCc3cccc(C(F)(F)F)c3)nc2n(CCCC(N)=O)c1=O [compound 36, 4-(2-methyl-3-oxo-6-(3-(trifluoromethyl)benzylamino)pyrido[2,3-b]pyrazin-4(3H)-yl)butanamide]
1900	COc1ccc(-c2nc3ccc(NCc4ccc(Cl)c(Cl)c4)nc3n(CCNC(=O)CN)c2=O)cc1 [compound 40, 2-amino-N-(2-(6-(3,4-dichlorobenzylamino)-2-(4-methoxyphenyl)-3-oxopyrido[2,3-b]pyrazin-4(3H)-yl)ethyl)acetamide]
1100	COc1ccc(-c2nc3ccc(NCc4ccc(Cl)c(Cl)c4)nc3n(CCNC(=O)CNC(C)=O)c2=O)cc1 [compound 41, 2-acetamido-N-(2-(6-(3,4-dichlorobenzylamino)-2-(4-methoxyphenyl)-3-oxopyrido[2,3-b]pyrazin-4(3H)-yl)ethyl)acetamide]
2200	COc1ccc(-c2nc3cc(NCc4ccc(Cl)c(Cl)c4)cnc3n(CCNC(C)=O)c2=O)cc1 [compound 42, N-(2-(7-(3,4-dichlorobenzylamino)-2-(4-methoxyphenyl)-3-oxopyrido[2,3-b]pyrazin-4(3H)-yl)ethyl)acetamide]
1100	CC(=O)NCCn1c(=O)c(C)nc2cc(NCc3ccccc3)cnc21 [compound 43, N-(2-(7-(benzylamino)-2-methyl-3-oxopyrido[2,3-b]pyrazin-4(3H)-yl)ethyl)acetamide]
240	CC(=O)NCCN1C(=O)C(C)Nc2cc(NC(=O)OCc3ccccc3)cnc21 (stereo not drawn) [compound 44, benzyl 4-(2-acetamidoethyl)-2-methyl-3-oxo-1,2,3,4-tetrahydropyrido[2,3-b]pyrazin-7-ylcarbamate]
6700	COc1ccc(-c2nc3ccc(NCc4cccc(C(F)(F)F)c4)nc3n(NC(=O)COC(C)=O)c2=O)cc1 [compound 45, 2-(2-(4-methoxyphenyl)-3-oxo-6-(3-(trifluoromethyl)benzylamino)pyrido[2,3-b]pyrazin-4(3H)-ylamino)-2-oxoethyl acetate]
